Data: PubChem BioAssay AID1963423 (Molecular Pharmacology Branch, DTP, NCI, 2024)
pIC50: −log10 of the molar value.

Test system: 439559-082-T-J2-PDC complex spheroid growth
Experiment: Anticancer human tumor 439559-082-T-J2-PDC patient-derived colon adenocarcinoma cell line growth inhibition [Asc]
Conditions: for pIC50: curve of first compound; for viability, T/C: stronger effect = lower value
Procedure, shortened: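 Concentration series start at each agent's clinical Cmax, or at 10 microM when none is established, and drop in half-log steps; agents are applied alone or together to complex spheroids built with HUVEC and hMSC.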
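Note: spheroids exposed to agents for 7 days starting day 3 after seeding.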
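Throughout, for viability, T/C: percent of DMSO vehicle control viability with 100% = vehicle.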

## C#Cc1c(F)ccc2cc(O)cc(-c3ncc4c(N5CC6CCC(C5)N6)nc(OCC56CCCN5CC(F)C6)nc4c3F)c12 (configuration not stated) + CCN1C(C(=O)NC23CCC(C(=O)O)(CC2)CC3)C(c2cccc(Cl)c2F)C2(C(=O)Nc3cc(Cl)ccc32)C12CCCCC2
Second compound 0.03 µM
  pIC50: 5.94
Second compound 0.0949 µM
  pIC50: 5.66
Second compound 0.3 µM
  pIC50: 5.79
Second compound 0.949 µM
  pIC50: 5.66
Second compound 3 µM
  pIC50: 6.23
Second compound 0.03 µM, first compound 0.0316 µM
  viability, T/C: 88%
Second compound 0.03 µM, first compound 0.1 µM
  viability, T/C: 81.7%
Second compound 0.03 µM, first compound 0.316 µM
  viability, T/C: 64%
Second compound 0.03 µM, first compound 1 µM
  viability, T/C: 50%
Second compound 0.03 µM, first compound 3.16 µM
  viability, T/C: 48.4%
Second compound 0.03 µM, first compound 10 µM
  viability, T/C: 40%
Second compound 0.0949 µM, first compound 0.0316 µM
  viability, T/C: 88.8%
Second compound 0.0949 µM, first compound 0.1 µM
  viability, T/C: 84.8%
Second compound 0.0949 µM, first compound 0.316 µM
  viability, T/C: 74.5%
Second compound 0.0949 µM, first compound 1 µM
  viability, T/C: 55.2%
Second compound 0.0949 µM, first compound 3.16 µM
  viability, T/C: 49.7%
Second compound 0.0949 µM, first compound 10 µM
  viability, T/C: 36.2%
Second compound 0.3 µM, first compound 0.0316 µM
  viability, T/C: 88.5%
Second compound 0.3 µM, first compound 0.1 µM
  viability, T/C: 83.5%
Second compound 0.3 µM, first compound 0.316 µM
  viability, T/C: 73.4%
Second compound 0.3 µM, first compound 1 µM
  viability, T/C: 51.2%
Second compound 0.3 µM, first compound 3.16 µM
  viability, T/C: 49.3%
Second compound 0.3 µM, first compound 10 µM
  viability, T/C: 39.3%
Second compound 0.949 µM, first compound 0.0316 µM
  viability, T/C: 103%
Second compound 0.949 µM, first compound 0.1 µM
  viability, T/C: 80.8%
Second compound 0.949 µM, first compound 0.316 µM
  viability, T/C: 72.8%
Second compound 0.949 µM, first compound 1 µM
  viability, T/C: 55.7%
Second compound 0.949 µM, first compound 3.16 µM
  viability, T/C: 48.2%
Second compound 0.949 µM, first compound 10 µM
  viability, T/C: 36.9%
Second compound 3 µM, first compound 0.0316 µM
  viability, T/C: 73.6%
Second compound 3 µM, first compound 0.1 µM
  viability, T/C: 74.3%
Second compound 3 µM, first compound 0.316 µM
  viability, T/C: 56.6%
Second compound 3 µM, first compound 1 µM
  viability, T/C: 45.2%
Second compound 3 µM, first compound 3.16 µM
  viability, T/C: 44.9%
Second compound 3 µM, first compound 10 µM
  viability, T/C: 37.8%

## NC(=O)C(=Cn1cnc(-c2cc(C(F)(F)F)cc(C(F)(F)F)c2)n1)c1cncnc1 + Cc1c(S(C)(=O)=O)c(-c2cc(F)cc(N3CCN(c4ccc(NS(=O)(=O)c5ccc(NC(CCN6CCC(C(=O)OCCCP(=O)(O)O)CC6)CSc6ccccc6)c(S(=O)(=O)C(F)(F)F)c5)cc4)CC3)c2)c(-c2ccc(Cl)cc2)n1C(C)C
Second compound 0.1 µM
  pIC50: < 6.52
Second compound 0.316 µM
  pIC50: < 6.52
Second compound 1 µM
  pIC50: < 6.52
Second compound 3.16 µM
  pIC50: < 6.52
Second compound 10 µM
  pIC50: < 6.52
Second compound 0.1 µM, first compound 0.000949 µM
  viability, T/C: 92%
Second compound 0.1 µM, first compound 0.003 µM
  viability, T/C: 115%
Second compound 0.1 µM, first compound 0.00949 µM
  viability, T/C: 92.9%
Second compound 0.1 µM, first compound 0.03 µM
  viability, T/C: 87%
Second compound 0.1 µM, first compound 0.0949 µM
  viability, T/C: 82.7%
Second compound 0.1 µM, first compound 0.3 µM
  viability, T/C: 82.5%
Second compound 0.316 µM, first compound 0.000949 µM
  viability, T/C: 100%
Second compound 0.316 µM, first compound 0.003 µM
  viability, T/C: 101%
Second compound 0.316 µM, first compound 0.00949 µM
  viability, T/C: 94.9%
Second compound 0.316 µM, first compound 0.03 µM
  viability, T/C: 82.8%
Second compound 0.316 µM, first compound 0.0949 µM
  viability, T/C: 84.2%
Second compound 0.316 µM, first compound 0.3 µM
  viability, T/C: 75.5%
Second compound 1 µM, first compound 0.000949 µM
  viability, T/C: 92.8%
Second compound 1 µM, first compound 0.003 µM
  viability, T/C: 98.2%
Second compound 1 µM, first compound 0.00949 µM
  viability, T/C: 91.1%
Second compound 1 µM, first compound 0.03 µM
  viability, T/C: 78%
Second compound 1 µM, first compound 0.0949 µM
  viability, T/C: 75.7%
Second compound 1 µM, first compound 0.3 µM
  viability, T/C: 67.4%
Second compound 3.16 µM, first compound 0.000949 µM
  viability, T/C: 87%
Second compound 3.16 µM, first compound 0.003 µM
  viability, T/C: 93.8%
Second compound 3.16 µM, first compound 0.00949 µM
  viability, T/C: 94.7%
Second compound 3.16 µM, first compound 0.03 µM
  viability, T/C: 75.3%
Second compound 3.16 µM, first compound 0.0949 µM
  viability, T/C: 69.4%
Second compound 3.16 µM, first compound 0.3 µM
  viability, T/C: 64.5%
Second compound 10 µM, first compound 0.000949 µM
  viability, T/C: 76.3%
Second compound 10 µM, first compound 0.003 µM
  viability, T/C: 73.6%
Second compound 10 µM, first compound 0.00949 µM
  viability, T/C: 75%
Second compound 10 µM, first compound 0.03 µM
  viability, T/C: 63.8%
Second compound 10 µM, first compound 0.0949 µM
  viability, T/C: 54.8%
Second compound 10 µM, first compound 0.3 µM
  viability, T/C: 56.6%

## C=C(F)C(=O)N1CCN(c2nc(OCC3CCCN3C)nc3c2CCN(c2cccc4cccc(Cl)c24)C3)CC1CC#N (configuration not stated) + CNC(C)C(=O)NC1CN(S(=O)(=O)c2cccc(S(=O)(=O)N3CCC4CCC(C(=O)NC(c5ccccc5)c5ccccc5)N4C(=O)C(NC(=O)C(C)NC)C3)c2)CCC2CCC(C(=O)NC(c3ccccc3)c3ccccc3)N2C1=O
Second compound 0.00316 µM
  pIC50: 5.26
Second compound 0.01 µM
  pIC50: 5.31
Second compound 0.0316 µM
  pIC50: 5.37
Second compound 0.1 µM
  pIC50: 5.39
Second compound 0.316 µM
  pIC50: 5.45
Second compound 1 µM
  pIC50: 5.59
Second compound 0.00316 µM, first compound 0.0316 µM
  viability, T/C: 101%
Second compound 0.00316 µM, first compound 0.1 µM
  viability, T/C: 104%
Second compound 0.00316 µM, first compound 0.316 µM
  viability, T/C: 103%
Second compound 0.00316 µM, first compound 1 µM
  viability, T/C: 85.6%
Second compound 0.00316 µM, first compound 3.16 µM
  viability, T/C: 94.4%
Second compound 0.00316 µM, first compound 10 µM
  viability, T/C: 2.3%
Second compound 0.01 µM, first compound 0.0316 µM
  viability, T/C: 98.8%
Second compound 0.01 µM, first compound 0.1 µM
  viability, T/C: 100%
Second compound 0.01 µM, first compound 0.316 µM
  viability, T/C: 94.9%
Second compound 0.01 µM, first compound 1 µM
  viability, T/C: 101%
Second compound 0.01 µM, first compound 3.16 µM
  viability, T/C: 77.3%
Second compound 0.01 µM, first compound 10 µM
  viability, T/C: 3.86%
Second compound 0.0316 µM, first compound 0.0316 µM
  viability, T/C: 102%
Second compound 0.0316 µM, first compound 0.1 µM
  viability, T/C: 102%
Second compound 0.0316 µM, first compound 0.316 µM
  viability, T/C: 104%
Second compound 0.0316 µM, first compound 1 µM
  viability, T/C: 104%
Second compound 0.0316 µM, first compound 3.16 µM
  viability, T/C: 67.2%
Second compound 0.0316 µM, first compound 10 µM
  viability, T/C: 0.24%
Second compound 0.1 µM, first compound 0.0316 µM
  viability, T/C: 96.1%
Second compound 0.1 µM, first compound 0.1 µM
  viability, T/C: 101%
Second compound 0.1 µM, first compound 0.316 µM
  viability, T/C: 92.2%
Second compound 0.1 µM, first compound 1 µM
  viability, T/C: 87.2%
Second compound 0.1 µM, first compound 3.16 µM
  viability, T/C: 64.3%
Second compound 0.1 µM, first compound 10 µM
  viability, T/C: 3.14%
Second compound 0.316 µM, first compound 0.0316 µM
  viability, T/C: 95.4%
Second compound 0.316 µM, first compound 0.1 µM
  viability, T/C: 90.3%
Second compound 0.316 µM, first compound 0.316 µM
  viability, T/C: 83.4%
Second compound 0.316 µM, first compound 1 µM
  viability, T/C: 79%
Second compound 0.316 µM, first compound 3.16 µM
  viability, T/C: 56.3%
Second compound 0.316 µM, first compound 10 µM
  viability, T/C: 0.25%
Second compound 1 µM, first compound 0.0316 µM
  viability, T/C: 84.5%
Second compound 1 µM, first compound 0.1 µM
  viability, T/C: 75.3%
Second compound 1 µM, first compound 0.316 µM
  viability, T/C: 82.5%
Second compound 1 µM, first compound 1 µM
  viability, T/C: 66.4%
Second compound 1 µM, first compound 3.16 µM
  viability, T/C: 46.3%
Second compound 1 µM, first compound 10 µM
  viability, T/C: 0.27%
